Legend:
[1] = molecular target: purified recombinant human HER2 protein (Homo sapiens (Human), UniProt P04626); experiment: Inhibitory effect on HER2-phosphorylating activity (in vitro); assay type: biochemical; details: ATP 6 uM, substrate peptide 0.5 uM, 25° C. for 40 minutes
Procedure: Next, the HER2 protein, the substrate peptide (final concentration: 0.5 uM), manganese chloride (final concentration: 10 mM), ATP (final concentration: 6 uM), and the solution of the compound of the present invention in DMSO (final concentration of DMSO: 5%) were added into a buffer solution for kinase reaction (15 mM Tris (pH 7.5), 2 mM dithiothreitol, and 0.01% Tween 20), and the mixture was incubated at 25° C. for 40 minutes for kinase reaction. The reaction was terminated by adding EDTA (final concentration: 30 mM) thereto. Finally, the unphosphorylated substrate peptide (S) and the phosphorylated peptide (P) were separated and detected by microcapillary electrophoresis using LabChip® EZ Reader II (PerkinElmer Inc.).

[2] = system: A431 cells; experiment: Cytostatic activity against EGFR-expressing cell line A431 (CellTiter-Glo); assay type: cell-based; details: EGFR-overexpressing human epithelioid cancer cell line, 3-day culture; read-out: A431 cell growth inhibitory activity IC50 value
Text: HER2-overexpressing human stomach cancer cell line NCI-N87 cells were suspended in RPMI1640 medium (manufactured by Life Technologies Corp.) containing 10% fetal bovine serum. Meanwhile, EGFR-overexpressing highly activated human epithelioid cancer cell line A431 cells were suspended in DMEM, high glucose medium (manufactured by Life Technologies Corp.) containing 10% fetal bovine serum. Subsequently, each cell suspension was inoculated to each well of a 384-well flat-bottom microplate and cultured at 37° C. for 1 day in an incubator containing 5% carbon dioxide. The compound of the present invention or Comparative Example compound 1 was dissolved in DMSO, and the test compound was diluted into a concentration of 500 times the final concentration using DMSO. The solution of the test compound in DMSO was diluted with the medium used in the suspension of each cell line, and this solution was added at a final concentration of DMSO of 0.2% to each well of the cell culture plate, followed by further culture at 37° C. for 3 days in an incubator containing 5% carbon dioxide.
Rate of growth inhibition (%)=(C−T)/(C)×100 T: Luminescence intensity of a well supplemented with the test compound C: Luminescence intensity of a well not supplemented with the test compound

purified recombinant human HER2 protein, sequence (P04626 23-1255): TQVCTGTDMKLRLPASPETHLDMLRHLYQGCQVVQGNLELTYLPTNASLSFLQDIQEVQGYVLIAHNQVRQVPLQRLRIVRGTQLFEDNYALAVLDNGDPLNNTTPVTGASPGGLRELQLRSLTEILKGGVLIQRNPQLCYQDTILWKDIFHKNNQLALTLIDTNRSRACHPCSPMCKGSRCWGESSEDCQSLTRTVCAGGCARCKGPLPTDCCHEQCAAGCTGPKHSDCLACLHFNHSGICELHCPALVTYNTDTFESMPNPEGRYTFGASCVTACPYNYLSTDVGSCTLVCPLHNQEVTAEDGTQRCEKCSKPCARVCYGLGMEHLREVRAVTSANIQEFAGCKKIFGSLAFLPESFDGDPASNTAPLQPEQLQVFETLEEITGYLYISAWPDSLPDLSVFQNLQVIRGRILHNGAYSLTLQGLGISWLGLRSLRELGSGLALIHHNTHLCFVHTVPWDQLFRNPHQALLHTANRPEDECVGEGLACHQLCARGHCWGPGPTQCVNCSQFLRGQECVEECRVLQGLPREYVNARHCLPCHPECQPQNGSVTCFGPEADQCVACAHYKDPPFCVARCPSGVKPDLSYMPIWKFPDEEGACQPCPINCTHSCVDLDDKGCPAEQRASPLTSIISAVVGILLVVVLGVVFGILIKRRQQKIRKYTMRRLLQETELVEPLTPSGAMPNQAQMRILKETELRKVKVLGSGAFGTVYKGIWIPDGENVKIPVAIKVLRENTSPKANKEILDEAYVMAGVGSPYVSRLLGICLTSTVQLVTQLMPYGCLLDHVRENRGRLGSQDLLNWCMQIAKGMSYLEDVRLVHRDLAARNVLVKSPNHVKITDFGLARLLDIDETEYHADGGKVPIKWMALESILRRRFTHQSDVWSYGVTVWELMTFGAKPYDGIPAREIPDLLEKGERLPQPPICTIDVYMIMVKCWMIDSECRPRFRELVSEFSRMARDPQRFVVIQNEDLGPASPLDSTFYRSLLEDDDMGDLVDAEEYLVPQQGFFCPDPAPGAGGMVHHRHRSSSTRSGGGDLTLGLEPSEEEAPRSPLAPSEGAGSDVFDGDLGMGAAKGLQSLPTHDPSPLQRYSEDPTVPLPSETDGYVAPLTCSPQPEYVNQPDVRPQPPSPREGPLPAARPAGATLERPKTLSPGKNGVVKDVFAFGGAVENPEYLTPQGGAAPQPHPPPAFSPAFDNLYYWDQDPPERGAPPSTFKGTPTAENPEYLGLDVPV

Row | Compound | IC50 [1] [nM] | IC50 [2] [nM]
1 | C=CC(=O)N1CCC[C@@H](n2nc(C(=O)Nc3ccc(CC(=O)N(C)C)c4ccccc34)c3c(N)ncnc32)C1 [Example 5, (R)-1-(1-acryloylpiperidin-3-yl)-4-amino-N-(4-(2-(dimethylamino)-2-oxoethyl)naphthalen-1-yl)-1H-pyrazolo[3,4-d]pyrimidine-3-carboxamide] | 11 | 
2 | C=CC(=O)N1CCC[C@@H](n2nc(C(=O)Nc3ccc(OC(=O)N(C)C)cc3)c3c(N)ncnc32)C1 [Example 21, (R)-4-(1-(1-acryloylpiperidin-3-yl)-4-amino-1H-pyrazolo[3,4-d]pyrimidine-3-carboxamido)phenyldimethyl carbamate] | 26 | 
3 | C=CC(=O)N1CCC[C@@H](n2nc(C(=O)Nc3ccc(CC(=O)N(C)C)cc3F)c3c(N)ncnc32)C1 [Example 25, (R)-1-(1-acryloylpiperidin-3-yl)-4-amino-N-(4-(2-(dimethylamino)-2-oxoethyl)-2-fluorophenyl)-1H-pyrazolo[3,4-d]pyrimidine-3-carboxamide] | 21 | 
4 | C=CC(=O)N1CCC[C@@H](n2nc(C(=O)Nc3ccc(NC(=O)N4CCCC4)cc3C)c3c(N)ncnc32)C1 [Example 75, (R)-1-(1-acryloylpiperidin-3-yl)-4-amino-N-(2-methyl-4-(pyrrolidine-1-carboxamido)phenyl)-1H-pyrazolo[3,4-d]pyrimidine-3-carboxamide] | 16 | 
5 | C=CC(=O)N1CC(F)C[C@@H](n2nc(C(=O)Nc3ccc(CC(=O)N(C)C)cc3Cl)c3c(N)ncnc32)C1 (stereo partly drawn) [Example 76, 1-((3R)-1-acryloyl-5-fluoropiperidin-3-yl)-4-amino-N-(2-chloro-4-(2-(dimethylamino)-2-oxoethyl)phenyl)-1H-pyrazolo[3,4-d]pyrimidine-3-carboxamide] | 5 | 
6 | (R,E)-4-(4-amino-1-(1-(4-dimethylamino)but-2-enoyl)piperidin-3-yl)-1H-pyrazolo[3,4-d]pyrimidine-3-carboxamido)naphthalen-1-yl dimethylcarbamate [Example 66] |  | 6040

The next lines start with results.

Row | IC50 [1] [nM] | Compound | IC50 [2] [nM]
7 | 13 | C=CC(=O)N1CCC[C@@H](n2nc(C(=O)Nc3ccc(CC(=O)N(C)C)c(C)c3C)c3c(N)ncnc32)C1 [Example 13, (R)-1-(1-acryloylpiperidin-3-yl)-4-amino-N-(4-(2-(dimethylamino)-2-oxoethyl)-2,3-dimethylphenyl)-1H-pyrazolo[3,4-d]pyrimidine-3-carboxamide] | 
8 | 22 | C=CC(=O)N1CCC[C@@H](n2nc(C(=O)Nc3cc(C)c(CC(=O)N(C)C)cc3C)c3c(N)ncnc32)C1 [Example 39, (R)-1-(1-acryloylpiperidin-3-yl)-4-amino-N-(4-(2-(dimethylamino)-2-oxoethyl)-2,5-dimethylphenyl)-1H-pyrazolo[3,4-d]pyrimidine-3-carboxamide] | 
9 | 11 | C=CC(=O)N1CCC[C@@H](n2nc(C(=O)Nc3ccc(CC(=O)N4CCCC4)cc3C)c3c(N)ncnc32)C1 [Example 71, (R)-1-(1-acryloylpiperidin-3-yl)-4-amino-N-(2-methyl-4-(2-oxo-2-(pyrrolidin-1-yl)ethyl)phenyl)-1H-pyrazolo[3,4-d]pyrimidine-3-carboxamide] | 
10 | 74 | C=CC(=O)N1CCC[C@@H](n2nc(C(=O)Nc3ccc(CC(=O)N4CC(O)C4)cc3C)c3c(N)ncnc32)C1 [Example 73, (R)-1-(1-acryloylpiperidin-3-yl)-4-amino-N-(4-(2-(3-hydroxyazetidin-1-yl)-2-oxoethyl)-2-methylphenyl)-1H-pyrazolo[3,4-d]pyrimidine-3-carboxamide] | 
11 | 17 | C=CC(=O)N1CCC[C@@H](n2nc(C(=O)Nc3ccc(NC(=O)N(C)C)cc3C)c3c(N)ncnc32)C1 [Example 74, (R)-1-(1-acryloylpiperidin-3-yl)-4-amino-N-(4-(3,3-dimethylureido)-2-methylphenyl)-1H-pyrazolo[3,4-d]pyrimidine-3-carboxamide] | 
12 | 13 | C=CC(=O)N1CC(F)C[C@@H](n2nc(C(=O)Nc3ccc(CC(=O)N(C)C)c(C)c3C)c3c(N)ncnc32)C1 (stereo partly drawn) [Example 77, 1-((3R)-1-acryloyl-5-fluoropiperidin-3-yl)-4-amino-N-(4-(2-(dimethylamino)-2-oxoethyl)-2,3-dimethylphenyl)-1H-pyrazolo[3,4-d]pyrimidine-3-carboxamide] | 

— patent US9920060B2, “Pyrazolo[3,4-d]pyrimidine compound or salt thereof” (TAIHO PHARMACEUTICAL CO., LTD., priority 2015, dated 2018)
